In PubChem BioAssay AID330 (DTP/NCI, 2004):
Several values for one entry are separate records, joined by “and”; a condition that tells them apart may be missing. Identical values can stand only once. Inconclusive results and toxic doses are left out. The calls were made as follows: active = survival T/C of 150% or more; inactive = T/C below 125% in these data. Square brackets hold non-standard residues; d marks the D form. Peptide text beside a SMILES is read from it. * marks the point of attachment. Cbz = O=C(OCc1ccccc1)*; Nva = CCC[CH](N)C(=O)O

Tested on: P388 leukemia ip, CD2F1 mice, survival T/C
Assay: NCI In Vivo Anticancer Drug Screen. Data for tumor model P388 Leukemia (intraperitoneal) in CD2F1 (CDF1) mice
Settings: endpoint: median survival time, higher = longer survival
Procedure, shortened: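 Mice carrying the transplanted tumor received test compound or vehicle. Survival was recorded in each group, and the value is the treated-group measurement divided by that of the vehicle-treated control group.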

[1] = dose: 50.0 mg/kg/injection, schedule: Q01DX005 (ip), vehicle: Klucel (hydroxypropylcellulose) (HPC)
[2] = dose: 100.0 mg/kg/injection, schedule: Q01DX005 (ip), vehicle: Klucel (hydroxypropylcellulose) (HPC)
[3] = dose: 200.0 mg/kg/injection, schedule: Q01DX005 (ip), vehicle: Klucel (hydroxypropylcellulose) (HPC)
[4] = dose: 12.5 mg/kg/injection, schedule: Q01DX009 (ip), vehicle: saline
[5] = dose: 25.0 mg/kg/injection, schedule: Q01DX009 (ip), vehicle: saline
[6] = dose: 50.0 mg/kg/injection, schedule: Q01DX009 (ip), vehicle: saline

Measured: T/C

CC12CCC(=O)C1C=CC2=O (configuration not stated)
inactive: dose: 100.0 mg/kg/injection, schedule: Q04DX003 (ip), vehicle: saline + Tween-80 + alcohol 100 % of control | dose: 200.0 mg/kg/injection, schedule: Q04DX003 (ip), vehicle: saline + Tween-80 + alcohol 112 % of control

CCCC(NC(=O)OCc1ccccc1)C(=O)NC(CC(C)C)C(=O)O (configuration not stated) (Cbz-[Nva]-Leu-OH; configuration not given here)
inactive: [1] 112 % of control | [2] 100 % of control | [3] 106 % of control

O=c1ccnc(Nc2ccc[nH]c2=S)[nH]1
inactive: [1] 100 % of control | dose: 60.0 mg/kg/injection, schedule: Q01DX005 (ip), vehicle: saline with Tween-80 105 % of control | [2] 99 % of control | dose: 120.0 mg/kg/injection, schedule: Q01DX005 (ip), vehicle: saline with Tween-80 105 % of control | [3] 93 % of control | dose: 240.0 mg/kg/injection, schedule: Q01DX005 (ip), vehicle: saline with Tween-80 100 % of control

O=C([O-])CC(=O)[O-].[Cu+2].[OH3+].[OH3+]
inactive: dose: 15.0 mg/kg/injection, schedule: Q01DX005 (ip), vehicle: Klucel (hydroxypropylcellulose) (HPC) 99 % of control

CCC(C)n1c(C)nc2cc(C(F)(F)F)cc(N)c21 (configuration not stated)
inactive: dose: 50.0 mg/kg/injection, schedule: Q01DX009 (ip), vehicle: saline + alcohol 99 % of control | dose: 100.0 mg/kg/injection, schedule: Q01DX009 (ip), vehicle: saline + alcohol 99 % of control

C[C@@]12N[C@H]3S[C@]1(C)c1ccccc1N2C[C@@H]3C#N
inactive: dose: 25.0 mg/kg/injection, schedule: Q01DX005 (ip), vehicle: saline with Tween-80 99 % of control | dose: 50.0 mg/kg/injection, schedule: Q01DX005 (ip), vehicle: saline with Tween-80 86 % of control and 94 % of control | dose: 100.0 mg/kg/injection, schedule: Q01DX005 (ip), vehicle: saline with Tween-80 96 % of control

CCCCCCCCC[N+]1([O-])CCCCCC1
inactive: [4] 100 % of control | [5] 99 % of control | [6] 105 % of control and 107 % of control

C/C(COc1ccc([N+](=O)[O-])cc1)=N/NS(=O)(=O)c1cc(Cl)c(Cl)cc1Cl
inactive: [4] 101 % of control | [5] 102 % of control | [6] 99 % of control and 87 % of control

Nn1c(=S)[nH]nc(/C=C/c2ccc3c(c2)OCO3)c1=O
inactive: dose: 50.0 mg/kg/injection, schedule: Q01DX009 (ip), vehicle: saline with Tween-80 89 % of control | dose: 100.0 mg/kg/injection, schedule: Q01DX009 (ip), vehicle: saline with Tween-80 91 % of control | dose: 200.0 mg/kg/injection, schedule: Q01DX009 (ip), vehicle: saline with Tween-80 98 % of control

c1ccc(Sc2cccc3ccccc23)cc1
inactive: dose: 100.0 mg/kg/injection, schedule: Q04DX003 (ip), vehicle: saline with Tween-80 95 % of control | dose: 200.0 mg/kg/injection, schedule: Q04DX003 (ip), vehicle: saline with Tween-80 109 % of control | dose: 400.0 mg/kg/injection, schedule: Q04DX003 (ip), vehicle: saline with Tween-80 104 % of control

O=C(O)c1cc(-c2ccncc2)nc2ccccc12
inactive: [1] 99 % of control | [2] 96 % of control | [3] 97 % of control

O=C1S/C(=C2\C(=O)N(CN3CCOCC3)c3ccccc32)C(=O)N1CN1CCOCC1
inactive: dose: 60.0 mg/kg/injection, schedule: Q01DX005 (ip), vehicle: Klucel (hydroxypropylcellulose) (HPC) 100 % of control | dose: 120.0 mg/kg/injection, schedule: Q01DX005 (ip), vehicle: Klucel (hydroxypropylcellulose) (HPC) 108 % of control | dose: 240.0 mg/kg/injection, schedule: Q01DX005 (ip), vehicle: Klucel (hydroxypropylcellulose) (HPC) 108 % of control

CC(CCc1ccc2c(c1)c(=N)c1ccc(N)cc1n2O)CC(C)(C)C (configuration not stated)
inactive: dose: 1.56 mg/kg/injection, schedule: Q04DX002 (ip), vehicle: distilled water + Tween-80 102 % of control and 96 % of control | dose: 3.12 mg/kg/injection, schedule: Q04DX002 (ip), vehicle: distilled water + Tween-80 106 % of control and 94 % of control | dose: 6.25 mg/kg/injection, schedule: Q04DX002 (ip), vehicle: distilled water + Tween-80 100 % of control and 120 % of control | dose: 12.5 mg/kg/injection, schedule: Q04DX002 (ip), vehicle: distilled water + Tween-80 102 % of control and 98 % of control (2×)

COc1ccc(NC(=O)Nc2nc3c(C)cccc3s2)cc1
inactive: [1] 101 % of control | [2] 98 % of control | [3] 93 % of control
